{
  "source": "patent US20170370933A1",
  "about": "“METHODS AND COMPOSITIONS FOR IMMUNOMODULATION” (Nodality, Inc., priority 2013, published 2017)",
  "key": {"TGFb modulated signaling": {"test_system": "TGFb modulated signaling", "assay": "in vitro Fresolimumab on TGFb modulated signaling in breast cancer samples", "assay_type": "cell-based, human", "experimental": "(§1) In this Example, samples of peripheral blood mononuclear cells (PBMCs) from breast cancer patients and from healthy donors were analyzed for IMR expression and by single cell network profiling, both modulated and unmodulated. Samples were taken before and after treatment in the breast cancer patients. IMR expression was profiled and correlated with immune signaling; differences in immune signaling by SCNP in pre- and post-treatment samples was investigated; the in vitro effects of immune checkpoint inhibitors on signaling in pre- and post-treatment samples was investigated; and the in vitro effects of Fresolimumab on TGFb modulated signaling in pre-treatment samples was profiled."}, "breast cancer patients": {"test_system": "breast cancer patients", "assay": "clinical study NCT01401062, Fresolimumab with radiotherapy in breast cancer: PBMC IMR expression, signaling, response", "assay_type": "in vivo, human", "experimental": "(§2) PBMC samples were collected from 7 healthy donors and 15 breast cancer patients enrolled in a clinical study NCT01401062, evaluating Fresolimumab (anti-TGF □) at 1 or 10 mg/kg IV in combination with radiotherapy (RT). Samples were cryopreserved then prepped and analyzed. Breast cancer donor samples were pre- and post-treatment. Basal expression of immunomodulatory receptors (IMRs) and short term signaling in response to modulation were profiled. Signaling following exposure to in vitro chemotherapeutic agents was also examined. Response to therapy in this trial was poor and therefore associations with clinical reponse was observational only.\nAnalysis of IMR expression and SCNP (modulated and unmodulated) was performed as detailed in previous Examples and in the specification."}, "[1]": {"test_system": "immune signaling pathways in PBMC subsets", "assay": "SCNP of PBMC from melanoma patients pre- and post-ipilimumab treatment", "assay_type": "in vivo, human", "details": "for IL-15→p-STAT5 signaling in post-treatment samples: CD4− T cells, vs healthy and untreated donor samples", "experimental": "Methods: 3 healthy and 13 melanoma patient cryopreserved samples, including 7 collected pre-treatment, and 6 collected post-treatment, were analyzed by SCNP. […] Cells were assessed for viability, cell subset frequencies and signaling in response to different modulators. A node is defined as combination of modulator and intracellular readout (e.g. IL-6→p-STAT3). Cytokine and TCR- or Fc[…]R-induced activation of STAT1, 3, 5, CD3 □ and Erk was evaluated in multiple immune cell populations and comparisons made based on disease, treatment time point and clinical responses."}, "metastatic melanoma": {"test_system": "metastatic melanoma", "details": "ipilimumab alone compared to gp100 vaccine alone; previously treated metastatic melanoma; p=0.003; cited from earlier work"}, "[2]": {"test_system": "CTLA-4 interaction with CD80/86 in T cells", "assay": "in vitro T cell activation on αCD3-coated plate with ipilimumab, 48 hr", "assay_type": "cell-based", "details": "PBMCs on αCD3-coated plate, vs isotype control", "experimental": "In this example, PBMCs were added to a αCD3-coated plate to induce T cell activation, then ipilimumab was added to block CTLA-4 interaction with CD80/86. Isotype control was added to a reference well. The cells were incubated at 37° C. for 48 hr, then fixed, permeabilized, stained, and data acquired as described in the Examples above. Cells were gated by CD3, CD4, and CD8, and the readouts were IL-2, TNF-α, Cyclin A2, and CTLA-4. Ipilimumab augmented CTLA-4 upregulation, cytokine production, and proliferation."}, "[3]": {"test_system": "p-STAT1, p-STAT3, p-STAT5 in whole blood cell subsets", "assay": "SCNP of cytokine-induced JAK/STAT signaling in whole blood of healthy donors", "assay_type": "cell-based, human", "experimental": "Method: Whole blood from 11 healthy donors (20-65 yrs, 7 males, 4 females, 8 Caucasians, 2 Hispanics, 1 East Asian) was stimulated at 37° C. in 96-well plates with a low, medium, and high dose of GM-CSF, IFN-α, IL-27 and IL-6, each added separately, as described in Example 5. For each dose, a stimulation time course was run with 6 time points between 3 and 45 minutes. […] The SCNP assay was performed using a fluorophore-labeled antibody cocktail to simultaneously measure signaling in six distinct cell populations, including: neutrophils, CD20+ B cells, CD3+CD4+ T cells, CD3+CD4− T cells (CD8 enriched), CD3−CD20− lymphocytes (NK cell enriched), and CD14+ monocytes. The median fluorescent intensity of phospho (p)-STAT1(Y701), p-STAT3(Y705), and p-STAT5(Y694) were measured in each defined cell population for each experimental condition.\nKinetic response to varying concentrations of modulators was investigated in normal samples (i.e. samples from persons who have no diagnosis of disease). 11 normal samples were donated with informed consent by Nodality Inc. employees and processed at Nodality Inc. in South San Francisco, Calif. The samples were treated with 4 different modulators (GM-CSF, IL-27, IFNa and IL-6) at 4 different concentrations of the modulator and activation levels of pStat1, pStat3 and pStat5 were measured at different time points. Activation levels were measured at 3, 5, 10, 15, 30 and 45 minutes using flow cytometry-based single cell network profiling. The concentrations of the stimulators are tabulated below:\nActivation levels of different cell surface markers were also profiled using single cell network profiling and used in conjunction with gating to segregate the cells into discrete cell populations. In the gating analysis, SSC-A and FSC-A were first used to segregate lymphocytes from non-lymphocytes. CD14 and CD4 were then used to segregate the non-lymphocytes into populations of neutrophils and CD14+ cells (monocytes). CD3 and CD20 were then used to segregate the lymphocytes into populations of CD20+(B Cells), CD3+(T Cells) and CD20-CD3-cells. CD4 was used to segregate the CD3+ T cells into populations of CD3+CD4- and CD3+CD4+ T cells."}, "[4]": {"test_system": "p-Stat1, p-Stat3, p-Stat4, p-Stat5, p-Stat6, p-p38 in PBMC subsets", "assay": "SCNP of IFN-α signaling in PBMC from healthy donors", "assay_type": "cell-based, human", "experimental": "Methods: IFN-α-mediated signaling responses were measured by SCNP in PBMC samples from 12 healthy donors. PBMCs were processed for flow cytometry by fixation and permeabilization followed by incubation with fluorochrome-conjugated antibodies that recognize extracellular lineage markers and intracellular signaling molecules. The levels of several phospho-proteins (p-Stat1, p-Stat3, p-Stat4, p-Stat5, p-Stat6, and p-p38) were measured in multiple cell populations (CD14+ monocytes, CD20+ B cells, CD4+CD3+ T cells, and CD4−CD3+ T cells) at 15 minutes, 1, 2 and 4 hours post IFN-α exposure as described in Example 6."}, "[5]": {"test_system": "TCR→p-ERK/p-AKT in T cells", "assay": "in vitro Keytruda effect on TCR signaling in PBMC of breast cancer patients and healthy donors", "assay_type": "cell-based, human", "experimental": "as §1\nas §2, with “Signaling following exposure to in vitro chemotherapeutic agents was also examined. Response to therapy in this trial was poor and therefore associations with clinical reponse was observational only.” left out\nIn addition, T cell receptor (TCR) signaling was studied using SCNP. The TCR was stimulated, as described elsewhere herein, and downstream readouts, in particular, p-ERK and p-AKT, p-PLCg2, p-CD3z, p-s6, and IkB were measured."}, "[6]": {"details": "IL-6 stimulation, CD4+ T cells and monocytes, whole blood"}},
  "note": "Entries after “also recorded” stand apart in the source; their conditions may differ.",
  "data": [
    {"substance": "Fresolimumab: anti-TGF, a TGFb inhibitor", "values": [
      {"measurement": "in vitro Fresolimumab activity", "setting": "TGFb modulated signaling", "result": "weak"},
      {"measurement": "response to therapy", "setting": "breast cancer patients; Fresolimumab in combination with radiotherapy", "result": "poor"},
      {"measurement": "PD-L1 expression in NK cells over the course of treatment", "setting": "breast cancer patients; breast cancer patients' PBMC", "result": "trend was observed toward increasing PD-L1 expression"},
      {"measurement": "TIM-3 expression in monocytes with treatment", "setting": "breast cancer patients; breast cancer patients' PBMC", "result": "decrease in TIM-3 expression"},
      {"measurement": "IMR expression patterns by dose", "setting": "breast cancer patients; higher dose (1 or 10 mg/kg IV) of Fresolimumab, patient PBMC", "result": "trend toward higher IMR expression patterns"},
      {"measurement": "TCR mediated signaling by dose", "setting": "breast cancer patients; higher dose of Fresolimumab, patient PBMC", "result": "trend toward reduced TCR mediated signaling"}
    ]},
    {"substance": "ipilimumab: fully human monoclonal antibody that blocks cytotoxic T-lymphocyte-associated antigen 4 (CTLA-4)-mediated T-cell suppression", "values": [
      {"measurement": "IL-15→p-STAT5 signaling in post-treatment samples", "setting": "[1]", "result": "diminished"},
      {"measurement": "IL-15→p-STAT5 signaling in post-treatment samples", "setting": "[1]; listed as Ipilimumab", "result": "reduced IL-15→p-STAT5 signaling"},
      {"measurement": "TCR→p-Erk, TCR→p-CD3z signaling in post-treatment samples", "setting": "[1]; CD45RA+ but not CD45RA− CD4+ and CD4− subsets, vs healthy donors and pre-treatment melanoma samples", "result": "diminished"},
      {"measurement": "hazard ratio for death", "setting": "metastatic melanoma", "result": 0.66},
      {"measurement": "CTLA-4 upregulation", "setting": "[2]", "result": "augmented"},
      {"measurement": "cytokine production (IL-2, TNF-α)", "setting": "[2]", "result": "augmented"},
      {"measurement": "proliferation (Cyclin A2)", "setting": "[2]", "result": "augmented"}
    ]},
    {"substance": "GM-CSF: cytokine modulator", "values": [
      {"measurement": "GM-CSF→p-STAT5 signal termination", "setting": "[3]; monocytes, neutrophils maintained persistent p-STAT5", "result": "efficient signal termination in monocytes"}
    ]},
    {"substance": "IFN-α", "values": [
      {"measurement": "time of peak activation of all 3 STAT proteins", "setting": "[3]; IFN-α stimulation, all cell subsets", "result": 10, "unit": "min"},
      {"measurement": "signaling resolution in monocytes", "setting": "[3]; IFN-α, signal sustained in all other subsets", "result": "almost complete at 45 minutes"},
      {"measurement": "activation of p-Stat4", "setting": "[4]; PBMC subsets", "result": "detected in T cell subsets (both CD4+ and CD4− T cells), but not in monocytes or B cells"},
      {"measurement": "time of peak response for activation of p-Stat4, p-Stat6, p-p38", "setting": "[4]; majority of cell types, PBMC", "result": 1, "unit": "h"},
      {"measurement": "time of peak response for activation of p-Stat1, p-Stat3, p-Stat5", "setting": "[4]; most cell types, PBMC", "result": 15, "unit": "min"}
    ]},
    {"substance": "IL-6: cytokine modulator", "values": [
      {"measurement": "time at which signal resolution fell to baseline levels", "setting": "[3]; IL-6, monocytes (CD4+ T cells sustained)", "result": 45, "unit": "min"},
      {"measurement": "time of peak p-STAT1 and p-STAT5", "setting": "[3]; [6]", "result": "10 to 15", "unit": "min"},
      {"measurement": "time of peak p-STAT3 levels", "setting": "[3]; [6]", "result": 3, "unit": "min"},
      {"measurement": "IL-6 induced activation in neutrophils", "setting": "[3]; compared to CD4+ T cells and monocytes", "result": "very low"},
      {"measurement": "cell subsets showing induced signaling", "setting": "[3]; whole blood, six cell populations", "result": "only observed in CD4+ T cells and monocytes"}
    ]},
    {"substance": "Keytruda: checkpoint blockade agent that reduces communication through the PD-1 pathway", "values": [
      {"measurement": "effect on TCR signaling (p-ERK and p-AKT readouts)", "setting": "[5]; PD-1 negative (low PD-1 expression)", "result": "no effect"},
      {"measurement": "effect on TCR signaling (p-ERK and p-AKT readouts)", "setting": "[5]; PD-1 positive (high expression) T cells", "result": "clear trend toward an increase in signaling; also recorded: increased TCR→AKT and p-ERK"}
    ]}
  ]
}
